Data published in ChEMBL document CHEMBL1201862, “PubChem BioAssay data set” (2004).
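These data come from cells grown in 96-well plates and exposed to compound for 48 hours at five concentrations. Here, GI50 denotes the concentration required for 50% inhibition of growth.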 Active and inactive are the calls of the source. Cut-off read from the data, not from the text of the source: active = GI50 up to about 1.1 µM and inactive = higher.

Tests used:
Experiment in all cases: growth of human tumour cells (NCI), 48 h
NCI-H226 = tested on: NCI-H226
UACC-257 = tested on: UACC-257
CCRF-CEM = tested on: CCRF-CEM
SF-268 = tested on: SF-268
LOX IMVI = tested on: LOX IMVI
HCT-15 = tested on: HCT-15
IGROV-1 = tested on: IGROV-1
UACC-62 = tested on: UACC-62
A549 = tested on: A549
KM12 = tested on: KM12
NCI-H23 = tested on: NCI-H23
SNB-75 = tested on: SNB-75
RXF 393 = tested on: RXF 393
SF-539 = tested on: SF-539
DU-145 = tested on: DU-145
MDA-MB-231 = tested on: MDA-MB-231
A498 = tested on: A498
Malme-3M = tested on: Malme-3M
NCI/ADR-RES = tested on: NCI/ADR-RES
T47D = tested on: T47D

Row | Structure (SMILES) | GI50 (NCI-H226) | GI50 (UACC-257) | GI50 (CCRF-CEM) | GI50 (SF-268) | GI50 (LOX IMVI) | GI50 (HCT-15) [µM] | GI50 (IGROV-1) | GI50 (UACC-62) | GI50 (A549) | GI50 (KM12) | GI50 (NCI-H23) | GI50 (SNB-75) | GI50 (RXF 393) | GI50 (SF-539) | GI50 (DU-145) | GI50 (MDA-MB-231) | GI50 (A498) | GI50 (Malme-3M) | GI50 (NCI/ADR-RES) | GI50 (T47D)
1 | O=P1(c2ccccc2)C(c2ccccc2)CCC1c1ccccc1 (stereo not given) | 91.8 µM (inactive) | 71.1 µM (inactive) | 21.4 µM (inactive) | > 100 µM (inactive) | 41.1 µM (inactive) | 28.8 | 82.6 µM (inactive) | 50.7 µM (inactive) | 65.8 µM (inactive) | 30 µM (inactive) | 48.4 µM (inactive) | 57.3 µM (inactive) | 96.8 µM (inactive) | > 100 µM (inactive) | > 100 µM (inactive) | 42.9 µM (inactive) |  |  |  | 
2 | CC(C)(C)OC(=O)[C@@H]1CCC(=S)N1Cc1ccccc1 | 60.1 µM (inactive) | > 100 µM (inactive) | > 100 µM (inactive) |  | > 100 µM (inactive) | > 100 | > 100 µM (inactive) | > 100 µM (inactive) | > 100 µM (inactive) | > 100 µM (inactive) | 70.1 µM (inactive) | 37.8 µM (inactive) | > 100 µM (inactive) | > 100 µM (inactive) | > 100 µM (inactive) | > 100 µM (inactive) | > 100 µM (inactive) | > 100 µM (inactive) | > 100 µM (inactive) | 
3 | CCOC(=O)CCC1(CCC(=O)OCC)CCCCCCCCC(CCC(=O)OCC)(CCC(=O)OCC)C(=O)C1=O | > 100 µM (inactive) | > 100 µM (inactive) |  | > 100 µM (inactive) | > 100 µM (inactive) | > 100 | > 100 µM (inactive) | > 100 µM (inactive) | > 100 µM (inactive) | > 100 µM (inactive) | > 100 µM (inactive) | 82.8 µM (inactive) |  | > 100 µM (inactive) | > 100 µM (inactive) |  | > 100 µM (inactive) | > 100 µM (inactive) | > 100 µM (inactive) | 79.1 µM (inactive)
4 | O=C(N/N=C1\C(=O)Nc2c(Cl)cc(Cl)cc21)C(=O)Nc1cccc(C(F)(F)F)c1 | > 100 µM (inactive) | > 100 µM (inactive) | > 100 µM (inactive) |  | > 100 µM (inactive) | > 100 | > 100 µM (inactive) | > 100 µM (inactive) | > 100 µM (inactive) | > 100 µM (inactive) | > 100 µM (inactive) | > 100 µM (inactive) | > 100 µM (inactive) | > 100 µM (inactive) |  | 94.4 µM (inactive) | > 100 µM (inactive) | > 100 µM (inactive) | > 100 µM (inactive) | 
5 | CC#C[C@]1(O)CCC2[C@@H]3CCC4=CC(=O)CCC4=C3[C@@H](c3ccc(N(C)C)cc3)C[C@@]21C (stereo not given in full) |  | 13.2 µM (inactive) | 9.75 µM (inactive) | 6.85 µM (inactive) | 16 µM (inactive) | 12.3 |  | 3.36 µM (inactive) | 10.2 µM (inactive) | 15.7 µM (inactive) | 21.4 µM (inactive) |  |  | 12.6 µM (inactive) | 22.1 µM (inactive) | 8.79 µM (inactive) |  | 14.6 µM (inactive) | 11.5 µM (inactive) | 6.84 µM (inactive)
6 | CC(=O)Oc1cccc2c1C(=O)C(Br)(Br)CCC2 | 6.68 µM (inactive) | 10.9 µM (inactive) | 1.34 µM (inactive) | 8.34 µM (inactive) | 2.17 µM (inactive) | 5.12 | 13.5 µM (inactive) | 7.76 µM (inactive) | 17.7 µM (inactive) | 8.49 µM (inactive) | 4.29 µM (inactive) | 6.1 µM (inactive) | 6.24 µM (inactive) | 9.31 µM (inactive) | 13.7 µM (inactive) | 2.38 µM (inactive) | 19 µM (inactive) | 4.07 µM (inactive) |  | 2.53 µM (inactive)
7 | CC1(C)C/N=C/C(C)(OCc2ccccc2)C(=O)NC(C)(C)C/N=C/C(C)(OCc2ccccc2)C(=O)N1 (stereo not given) | > 10 µM (inactive) | > 10 µM (inactive) | > 10 µM (inactive) | > 10 µM (inactive) | > 10 µM (inactive) | > 10 | > 10 µM (inactive) | > 10 µM (inactive) | > 10 µM (inactive) | > 10 µM (inactive) | > 10 µM (inactive) | 3.82 µM (inactive) | > 10 µM (inactive) | > 10 µM (inactive) | > 10 µM (inactive) | > 10 µM (inactive) | > 10 µM (inactive) |  |  | > 10 µM (inactive)
8 | CN(C)CCCNC(=O)CCNC(=O)c1cc(NC(=O)c2cc(NC(=O)c3cc(NC(=O)CCCNC(=O)c4cc(NC(=O)c5cc(NC(=O)c6nccn6C)cn5C)cn4C)cn3C)cn2C)cn1C | > 100 µM (inactive) | > 100 µM (inactive) | > 100 µM (inactive) | > 100 µM (inactive) | > 100 µM (inactive) | > 100 | > 100 µM (inactive) |  | > 100 µM (inactive) | > 100 µM (inactive) | > 100 µM (inactive) | > 100 µM (inactive) | > 100 µM (inactive) | > 100 µM (inactive) |  | > 100 µM (inactive) | > 100 µM (inactive) | > 100 µM (inactive) | > 100 µM (inactive) | 
9 | CCN(CC)CCC1(C(=O)OC)SCCc2ccc(C)cc21 (stereo not given) | > 100 µM (inactive) | > 100 µM (inactive) | > 100 µM (inactive) | > 100 µM (inactive) | > 100 µM (inactive) | > 100 | > 100 µM (inactive) | > 100 µM (inactive) | > 100 µM (inactive) | > 100 µM (inactive) | > 100 µM (inactive) | 63.2 µM (inactive) | > 100 µM (inactive) | > 100 µM (inactive) | > 100 µM (inactive) |  | > 100 µM (inactive) | > 100 µM (inactive) | > 100 µM (inactive) | > 100 µM (inactive)
10 | [N-]=[N+]=NC1=NNC2(C(=O)N1)c1ccccc1-c1ccccc12 | > 100 µM (inactive) | > 100 µM (inactive) | > 100 µM (inactive) | > 100 µM (inactive) | > 100 µM (inactive) | > 100 | > 100 µM (inactive) | > 100 µM (inactive) | > 100 µM (inactive) |  | > 100 µM (inactive) | > 100 µM (inactive) | > 100 µM (inactive) | > 100 µM (inactive) | > 100 µM (inactive) | > 100 µM (inactive) | > 100 µM (inactive) | 18.1 µM (inactive) | > 100 µM (inactive) | 
11 | S=C1N(/N=C/c2c3ccccc3cc3ccccc23)C(=N\c2ccccc2)/C(=N/c2ccccc2)N1c1ccccc1 | > 100 µM (inactive) | > 100 µM (inactive) |  | > 100 µM (inactive) |  | > 100 | > 100 µM (inactive) | > 100 µM (inactive) | > 100 µM (inactive) | > 100 µM (inactive) | > 100 µM (inactive) |  | > 100 µM (inactive) | > 100 µM (inactive) | > 100 µM (inactive) | > 100 µM (inactive) |  | > 100 µM (inactive) | > 100 µM (inactive) | > 100 µM (inactive)
